Values quoted from earlier work as cited in paper PMC9297971 (Chembiochem, 2021).

Tested on: HIV-1
Settings: read-out: IC50 of clinically used T20; ref 15b, 36

IC50: 24 to 36 nM
Substance: Enfuvirtide [T20]
